In test [1] the test system is pentobarbital-anesthetized dog. Kind of test: Test for in vivo myocardial inotropic activity in anesthetized dog. Particulars: intravenous; for % Change Blood Pressure: aortic blood pressure; for % Change Myocardial Contractility: dP/dt of left ventricular blood pressure. How it is done:
Test for in vivo myocardial inotropic activity in anesthetized dog This screen consists of determining the effects of increasing intravenous doses of compound on myocardial contractility (dP/dt mad of left ventricular blood pressure), heart rate and aortic blood pressure of the pentobarbital-anesthetized dog. Adult mongrel dogs of either sex are anesthetized with pentobarbital, 35 mg/kg, IV, and are subsequently maintained under anesthesia with a continuous infusion of pentabarbital, 3.5 mg/kg/hour. The trachea is intubated but the animals are permitted to breathe spontaneously. A cannula is inserted into the femoral vein for administrating test agents. A Millar catheter tip pressure transducer or a fluid filled catheter is inserted into the ascending aorta via the femoral artery for measuring aortic blood pressure. A Millar catheter tip pressure transducer is passed into the left ventricle via the left carotid artery for measuring left ventricular blood pressure. Needle electrodes are.placed subcutaneously for recording a lead II electrocardiogram (ECG). Left ventricular and aortic blood pressures are recorded on a strip chart recorder. Heart rate, using a . biotachometer triggered from the R wave of the ECG, and the first derivative of left ventricular blood pressure (dP/dt), obtained with a differentiator amplifier coupled to the corresponding pressure amplifier, are also recorded. A period of at least 30 minutes is utilized to obtain control data prior to administration of test compound. Depending on solubility, the compounds are dissolved in 0.9% saline solution or in dilute HCI or NaOH (0.1 or 1.0 N) and are diluted to volume with normal saline. Ethanol or dimethylacetamide can be used as solvents if adequate dilutions can be made. Appropriate vehicle controls are administered when needed. Each dose of the test compound is administered in volume of 0.1 ml/kg over a period of one minute.

Another test concerns conscious rat. Description: Direct monitoring of aortic blood pressure and heart rate from conscious rats. The class given is in vivo. Particulars: doses 1, 3, 10, and 30 mg/kg. The source says:
A method for the direct monitoring of aortic blood pressure and heart rate from conscious rats
The continuous monitoring of pulsatile blood pressure from unrestrained conscious rats surgically equipped with polyethylene cannulas was accomplished by means of a computer assisted data capture scheme (CADCS). The basic elements of the methodology are the cannulation procedure and the CADCS. Method
Cannulation Procedure: Rats were anesthetized with Telazol (1:1 tiletamine HCI and zolazepam HCI; WU PD, Ann Arbor, MI) 20-40 mg/kg IM and the descending aorta exposed via a midline incision. Cannulus fabricated from polyethylene tubing (Clay Adams, Parsippany, NJ) were inserted into the aorta via an undersized puncture hole below the renal arteries. The puncture hole was made by a 23 G disposable needle with a section of the aorta clamped off above and below the puncture site. The cannulas, consisting of a PE100 (0.86 mm ID) body and a PE50 (0.58 mm ID) tip, were attached to a trocar, inserted through the psoas muscle, and passed subcutaneously along the midline of the back and externalized between the ears. The cannulas were anchored to the psoas muscle and between the scapulae (3-0 green braided suture; Deknatel, Queens Village, NY). The midline incision was closed in two steps (muscle first, skin second) using continuous over-and-over sutures (4-0 chronic; Ethicon, Somerville, NJ). Each rat was then given penicillin 30,000 units subcutaneously (Penicillin G Procaine Sterile Suspension; Parke-Davis, Detroit, MI).
The rats were fitted with a harness-spring-swivel assembly designed to protect the cannula and to provide the rat relative freedom of movement. The harnesses were fabricated from nylon hook and loop tape (Velcro, Manchester, NH) cemented to a metal plate to which spring wires (18-8 stainless steel, Paragon Spring; Chicago, IL) were attached to brass swivels (BRS/LVE, Bellville: MD). Each polyethylene cannula was channeled through a spring and connected through a swivel to a pressure transducer (Model P23Gb; Statham Instruments; Hato Rey, Puerto Rico) and an infusion pump (Sage model 234-7; Orion Research, Cambridge, MA) by means of PE100 tubing. While on test, each rat received a continuous slow infusion of heparinized saline solution […] or 40 units of heparin per 24-hour period) to prevent clot formation. Additional "flushes" of the cannula with heparinized saline were carriedd out when the aortic pulse pressure (systolic minus diastolic) was less than 25 mm Hg.
CADCS: The pulsatile blood pressure and heart rate of each of 32 rats was monitored every minute by means of two in-laboratory microcomputers communicating directly with a data concentrator computer. The data were first stored on the data concentrator disk and then transferred to a magnetic tape for analysis and report generation by the main research computer (Varian V-74 or IBM). The overall scheme involved modulating the primary signal from the pressure transducer, generating the primary data set of the one- minute values for systolic, diastolic, and mean blood pressures and heart rate by the in-lab microcomputer and the storage, analysis, and report generation by the main research computer.
The transducers were connected to analog signal conditioning modules. The modules provided a regulated excitation voltage for the transducers, amplification as required to interface the microprocessors and an active low pass filter to compensate for the pressure wave form distortion produced by the flexible, fluid filled, narrow lumened cannula. The distortion was 22-26 Hz and thus provided a reliable estimate of both systolic and diastolic blood pressure.
The microcomputers (one for each of two groups of 16 rats) were connected to the input components through the module interface units, an analog-to-digital converter for the pressure wave form signal and the digital inputs for the dose and event marker switches. […]

Turning to `O=C1CCC(c2ccc(-n3ccnc3)cc2)=NN1` [Example 3a, 4,5-Dihydro-6-[4-(1H imidazol-1-yl)phenyl]-3(2H)-pyridazinone], the “% Change Heart Rate” value in test [1] (dose 0.01 mg/kg) is reported as −4.0%; in test [1] (dose 0.03 mg/kg), −4.0%; in test [1] (dose 0.10 mg/kg) it was −1.0%; in test [1] (dose 0.31 mg/kg) it was 2.0%. Also, the “% Change Blood Pressure” value in test [1] (dose 0.01 mg/kg) was −2.0%; in test [1] (dose 0.03 mg/kg), −6.0%; in test [1] (dose 0.10 mg/kg) it was −10.5%; in test [1] (dose 0.31 mg/kg) it was −21.5%. For the same molecule, the “% Change Myocardial Contractility” value in test [1] (dose 0.01 mg/kg) is 9%; in test [1] (dose 0.03 mg/kg) it was 32%; in test [1] (dose 0.10 mg/kg), 57%; in test [1] (dose 0.31 mg/kg), 87%.
As for `O=C1CCC(c2cccc(-n3ccnc3)c2)=NN1` [Example 6, 4,5-Dihydro-6-[3-(1-imidazol-1-yl)phenyl]-3(2H)-pyridazinone], the “% Change Heart Rate” value in test [1] (dose 0.01 mg/kg) is given as −2.0%; in test [1] (dose 0.10 mg/kg), −1.0%; in test [1] (dose 0.30 mg/kg), 2.0%; in test [1] (dose 1.0 mg/kg), 11.0%. The “% Change Blood Pressure” value is on record as 1.0% in test [1] (dose 0.01 mg/kg), −1.0% in test [1] (dose 0.10 mg/kg), −8.0% in test [1] (dose 0.30 mg/kg) and −20.0% in test [1] (dose 1.0 mg/kg). Also, the “% Change Myocardial Contractility” value was found to be 6% in test [1] (dose 0.01 mg/kg), 36% in test [1] (dose 0.10 mg/kg), 71% in test [1] (dose 0.30 mg/kg) and 114% in test [1] (dose 1.0 mg/kg). Also, the aortic blood pressure entry with conscious rat was “significant reduction”.
`O=C1CCC(c2ccc(-n3cnc4c3CCCC4)cc2)=NN1` [Example 8, 4,5-Dihydro-6-[4-(4,5,6,7-tetrahydro-1H-benzimidazol-1-yl)phenyl]-3(2H)-pyridazinone]: the “% Change Heart Rate” value was −3.0% in test [1] (dose 0.01 mg/kg); −15.0% in test [1] (dose 0.03 mg/kg); −17.0% in test [1] (dose 0.10 mg/kg); −18.0% in test [1] (dose 0.31 mg/kg); −7.0% in test [1] (dose 1.0 mg/kg). Moreover, the “% Change Blood Pressure” value in test [1] (dose 0.01 mg/kg) is −2.5%; in test [1] (dose 0.03 mg/kg), −7.0%; in test [1] (dose 0.10 mg/kg), −11.0%; in test [1] (dose 0.31 mg/kg) it was −17.0%; in test [1] (dose 1.0 mg/kg), −27.0%. In addition, the “% Change Myocardial Contractility” value in test [1] (dose 0.01 mg/kg) amounted to 10%; in test [1] (dose 0.03 mg/kg), 21%; in test [1] (dose 0.10 mg/kg), 51%; in test [1] (dose 0.31 mg/kg), 95%; in test [1] (dose 1.0 mg/kg) it was 127%. Moreover, the aortic blood pressure result in the test with conscious rat is “significant reduction”.
As for `O=C1CCC(c2ccc(-n3cnnc3)cc2)=NN1` [Example 10], in the test with conscious rat, the aortic blood pressure entry is listed as “significant reduction”.
On the same count and under the same terms, next, `O=C1CCC(c2ccc(-n3cccc3)cc2)=NN1` [Example 11, 4,5-Dihydro-6-[4-(H-pyrrol-1-yl)phenyl]-3(2H)-pyridazinone]: “significant reduction”.
The same measure, in the same setting: next, `O=C1CCC(c2ccc(OCCn3ccnc3)cc2)=NN1` [Example 12, 4,5-Dihydro-6-[4-[2-(1H-imidazol-1-yl)ethoxy]phenyl]-3(2H)-pyridazinone]: “significant reduction”.
With `O=c1ccc(-c2ccc(-n3ccnc3)cc2)n[nH]1` [Example 13a, 6-[4-(1H-Imidazol-1-yl)phenyl]-3(2H)-pyridazinone], the “% Change Heart Rate” value in test [1] (dose 0.01 mg/kg) is listed as 0.0%; in test [1] (dose 0.03 mg/kg), 6.0%; in test [1] (dose 0.10 mg/kg), 16.0%; in test [1] (dose 0.31 mg/kg) it was 32.0%. For the same molecule, the “% Change Blood Pressure” value is listed as 0.0% in test [1] (dose 0.01 mg/kg), −1.5% in test [1] (dose 0.03 mg/kg), −6.0% in test [1] (dose 0.10 mg/kg) and −9.0% in test [1] (dose 0.31 mg/kg). Moreover, the “% Change Myocardial Contractility” value in test [1] (dose 0.01 mg/kg) is listed as 3%; in test [1] (dose 0.03 mg/kg), 15%; in test [1] (dose 0.10 mg/kg) it was 40%; in test [1] (dose 0.31 mg/kg), 78%.
`O=c1ccc(-c2cccc(-n3ccnc3)c2)n[nH]1` [Example 14, 6-[3-(1H-Imidazol-1-yl)phenyl]-3(2H)-pyridazinone]: the aortic blood pressure result in the test on conscious rat is “significant reduction”.
Same read-out and setting: next, `O=c1ccc(-c2ccc(-n3cnc4c3CCCC4)cc2)n[nH]1` [Example 15, 6-[4-(4,5,6,7-Tetrahydro-1H benzimidazol-1-yl)phenyl]-3(2H)-pyridazinone]: “significant reduction”; `O=c1ccc(-c2ccc(OCCn3ccnc3)cc2)n[nH]1` [Example 16, 6-[4-[2-(1H Imidazol-1-yl)ethoxy]phenyl]-3(2H)-pyridazinone]: “significant reduction”.

Values taken from patent publication EP0075436B1, “Substituted 4,5-dihydro-6-(substituted)-phenyl-3(2H)-pyridazinones and 6-(substituted)phenyl-3(2H)-pyridazinones” (WARNER-LAMBERT COMPANY, priority 1981, dated 1983).
